Assays:
Experiment in all cases: selective drug sensitivity score (sDSS, relative to normal bone marrow) (sDSS (score)); higher = more potent and effective on the cell line relative to normal bone marrow cells
Details in all cases: 72 h
RPMI-8402 = tested on: RPMI-8402
MOLT-16 = tested on: MOLT-16
PEER = tested on: PEER
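Also: ALL cell lines in 384-well plates, five doses spanning 10,000-fold, each plate scaled between vehicle and 100 µmol/L benzalkonium chloride controls, sDSS an adapted area-under-curve metric.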

SMILES | selective drug sensitivity score (RPMI-8402) | selective drug sensitivity score (MOLT-16) | selective drug sensitivity score (PEER)
CC(C)(C)NC(=O)[C@H]1CC[C@H]2[C@@H]3CC[C@H]4NC(=O)C=C[C@]4(C)[C@H]3CC[C@]12C [Finasteride] (top concentration 10000 nM) | -0.52 | -0.52 | -0.52
Cc1ccc(NC(=O)c2ccc(CN3CC[C@H](N(C)C)C3)c(C(F)(F)F)c2)cc1Nc1nccc(-c2cncnc2)n1 [Bafetinib] (top concentration 1000 nM) | 0 | 0 | 15.4
O=C(Nc1ccc(OC(F)(F)Cl)cc1)c1cnc(N2CC[C@@H](O)C2)c(-c2cc[nH]n2)c1 [Asciminib] (top concentration 1000 nM) | -1.98 | 8.42 | 16.2
CN1CCN(CCOc2cc(OC3CCOCC3)c3c(Nc4c(Cl)ccc5c4OCO5)ncnc3c2)CC1 [Saracatinib] (top concentration 10000 nM) | 4.98 | 2.38 | 7.38
CC[C@]1(O)C[C@H]2CN(CCc3c([nH]c4ccccc34)[C@@](C(=O)OC)(c3cc4c(cc3OC)N(C)[C@H]3[C@@](O)(C(=O)OC)[C@H](OC(C)=O)[C@]5(CC)C=CCN6CC[C@]43[C@@H]65)C2)C1 [Vinblastine] (top concentration 1000 nM) | 1.6 | 0.7 | -0.9
O=C(c1ccc(C(=O)N2CCC(N3CCCC3)CC2)c(Nc2ccccc2)c1)N1CCC(N2CCCC2)CC1 [UNC1215] (top concentration 10000 nM) | 0 | 0 | 0
C[C@@H]1CN(Cc2ccc(F)cc2)[C@@H](C)CN1C(=O)c1cc2c(C(=O)C(=O)N(C)C)cn(C)c2cc1Cl [Talmapimod] (top concentration 10000 nM) | 0.8 | 0 | 0
CCCS(=O)(=O)Nc1ccc(F)c(C(=O)c2c[nH]c3ncc(-c4ccc(Cl)cc4)cc23)c1F [Vemurafenib] (top concentration 10000 nM) | 2.06 | 3.76 | 2.56
CN(C)C/C=C/C(=O)Nc1cc2c(Nc3ccc(F)c(Cl)c3)ncnc2cc1O[C@H]1CCOC1 [Afatinib] (top concentration 1000 nM) | -0.84 | -0.34 | 0.66
COc1cc(OC2CCN(C)CC2)ccc1Nc1ncc2c(n1)n(C1CCCC1)c(=O)n2C [AZ3146] (top concentration 10000 nM) | 1.94 | 0.44 | 2.54
C[C@H]1Oc2cc(cnc2N)-c2c(nn(C)c2C#N)CN(C)C(=O)c2ccc(F)cc21 (top concentration 1000 nM) | -0.72 | -0.32 | -0.72
CCOc1cc2ncc(C#N)c(Nc3ccc(OCc4ccccn4)c(Cl)c3)c2cc1NC(=O)/C=C/CN(C)C [Neratinib] (top concentration 1000 nM) | 3.08 | 1.98 | 2.88
CC/C(=C(\c1ccc(O)cc1)c1ccc(OCCN(C)C)cc1)c1ccccc1 [4-hydroxytamoxifen] (top concentration 10000 nM) | 2.62 | 3.02 | 2.32
COCC1(CO)C(=O)C2CCN1CC2 (stereo not given) [APR-246] (top concentration 10000 nM) | -1.16 | 1.04 | -1.16
C=CC(=O)Nc1cccc(Nc2nc(Nc3ccc(OCCOC)cc3)ncc2F)c1 [Spebrutinib] (top concentration 1000 nM) | -0.16 | 0.64 | 0.74
O=C1Cc2cc(C(=O)NC3C[C@H]4CC[C@@H](C3)N4S(=O)(=O)CC3CCN(CCCC(F)(F)F)CC3)c(Cl)cc2N1 (stereo not given in full) (top concentration 10000 nM) | 0 | 0 | 0
Clc1ccc(Nc2nnc(Cc3ccncc3)c3ccccc23)cc1 [Vatalanib] (top concentration 10000 nM) | 0 | 0 | 0.7
OC[C@H]1O[C@@H](n2cnc3c2N=CNC[C@H]3O)C[C@@H]1O [Pentostatin] (top concentration 10000 nM) | -0.44 | -0.34 | -0.44

SMILES | selective drug sensitivity score (RPMI-8402) | selective drug sensitivity score (MOLT-16) | selective drug sensitivity score (PEER)
COc1cc2nccc(Oc3ccc(NC(=O)C4(C(=O)Nc5ccc(F)cc5)CC4)cc3)c2cc1OC [Cabozantinib] (top concentration 1000 nM) | -1.62 | -3.62 | 2.08
CNc1nc(Nc2cn(C(C)(C)C#N)nc2C)ncc1C(F)(F)F [GNE-0877] (top concentration 1000 nM) | 0 | 0 | 0
COc1cc2nccc(Oc3ccc(NC(=O)Nc4cc(C)on4)c(Cl)c3)c2cc1OC [Tivozanib] (top concentration 10000 nM) | 1.76 | 3.66 | 12.2
CC(=O)[C@]1(O)Cc2c(O)c3c(c(O)c2[C@@H](O[C@H]2C[C@H](N)[C@H](O)[C@H](C)O2)C1)C(=O)c1ccccc1C3=O [Idarubicin] (top concentration 1000 nM) | 10.5 | 15.9 | -4.86
FC(F)c1nc2ccccc2n1-c1nc(N2CCOCC2)nc(N2CCOCC2)n1 [ZSTK474] (top concentration 10000 nM) | 5.86 | 6.46 | -3.64
CN(C)CC#Cc1ccc(OCCCc2sc(N3CCc4cccc(C(=O)Nc5nc6ccccc6s5)c4C3)nc2C(=O)O)c(F)c1 (top concentration 10000 nM) | 27.9 | 0.56 | 31.8
CN(C)C(=N)NC(=N)N [Metformin] (top concentration 100000 nM) | -0.02 | -0.02 | -0.02
CN1CCN(c2cc(C(=O)Nc3ccc4c(c3)-c3c(c(C(N)=O)nn3-c3ccc(F)cc3)CC4)c(Cl)cn2)CC1 [PHA-408] (top concentration 10000 nM) | 1.88 | 1.28 | 3.18
C[C@H]1C[C@@H]2[C@H]([C@@H](O)C[C@@]3(C)[C@H]2CC[C@]3(O)C(=O)CO)[C@@]2(C)C=CC(=O)C=C12 [Methylprednisolone] (top concentration 10000 nM) | -2.1 | 7.9 | -1.5
COC(=O)c1ccc2c(c1)[nH]c1ncnc(NCCCN3CCCCC3)c12 [UM729] (top concentration 10000 nM) | 2.34 | 0.94 | 1.84
CCCCCOC(=O)Nc1nc(=O)n([C@@H]2O[C@H](C)[C@@H](O)[C@H]2O)cc1F [Capecitabine] (top concentration 10000 nM) | -0.06 | -0.06 | -0.06
C[C@@H](C(=O)O)c1ccc(-c2ccccc2)c(F)c1 [Tarenflurbil] (top concentration 10000 nM) | -0.16 | 5.04 | -0.16
COc1cc2nccc(Oc3ccc(NC(=O)NC4CC4)c(Cl)c3)c2cc1C(N)=O [Lenvatinib] (top concentration 2500 nM) | -0.24 | -0.04 | 2.26
CC[C@]1(O)C[C@H]2CN(CCc3c([nH]c4ccccc34)[C@@](C(=O)OC)(c3cc4c(cc3OC)N(C=O)[C@H]3[C@@](O)(C(=O)OC)[C@H](OC(C)=O)[C@]5(CC)C=CCN6CC[C@]43[C@@H]65)C2)C1 [Vincristine] (top concentration 1000 nM) | 4.72 | 9.52 | 6.82
CC[C@H](C)C(=O)O[C@H]1C[C@@H](C)C=C2C=C[C@H](C)[C@H](CC[C@@H]3C[C@@H](O)CC(=O)O3)[C@H]21 [Lovastatin] (top concentration 10000 nM) | 1.8 | 1.7 | 1.2
NCCNc1ccc(NCCN)c2c1C(=O)c1ccncc1C2=O [Pixantrone] (top concentration 10000 nM) | -2.76 | -2.46 | -2.76
CNC(=O)c1ccc(N2C(=S)N(c3ccc(C#N)c(C(F)(F)F)c3)C(=O)C2(C)C)cc1F [Enzalutamide] (top concentration 10000 nM) | 0.48 | 1.48 | 0.48
